In a melting point compilation (Tetko et al.; mined from patent text by program, amines drawn as free bases though some values may be those of a salt):

Question: With `CCCCCCCNC(=O)Nc1ccc(OCC)cc1C(=O)NCC1CCN(C(c2ccccc2)c2ccccc2)CC1` as the compound, how does the melting point read?
Answer: 188 to 189 °C

Question: Which melting point does the source give for `COC(=O)c1ccccc1C(=O)c1ccc(CBr)cc1` here?
Answer: 88.2 to 91.5 °C

Question: With `COC(=O)c1cc2c(Nc3ccc4[nH]ccc4c3C)c(C#N)cnc2s1` as the compound, how does the melting point read?
Answer: 255 °C

Question: For `CCCC1(CCC(C)=O)Cc2cc(CCC(=O)O)c(Cl)c(Cl)c2C1=O` (centres undefined), which melting point is on record?
Answer: 131 to 133 °C

Question: Which melting point does the source give for `O=C(O)c1ccc(Oc2ccc([N+](=O)[O-])cc2)cc1O` here?
Answer: 195 to 197 °C

Question: For `Cc1cc2c(-c3ccccc3)noc2c2c1OC(CO)C2` (centres undefined), which melting point is on record?
Answer: 130 to 133 °C

Question: With `COc1ccc(/C(=C\C=C\C(=O)Oc2ccc([N+](=O)[O-])cc2)c2cccnc2)cc1` as the compound, how does the melting point read?
Answer: 54 to 56 °C

Question: With `CC1CC=C(c2ccc(C(C)C(=O)O)cc2)CC1` (centres undefined) as the compound, how does the melting point read?
Answer: 100 to 104 °C

Question: With `CC1=C(C#N)C(c2cccc3nnc(-c4ccccc4)cc23)C(C(=O)OC(C)C)=C(C)N1` (centres undefined) as the compound, how does the melting point read?
Answer: 200 to 202 °C

Question: For `N#CC(C(=O)Nc1ccccc1Cl)C(=O)c1nn(-c2ccccc2)c2c1Cc1ccccc1-2` (centres undefined), which melting point is on record?
Answer: 295 to 297 °C

Question: Which melting point does the source give for `CC(=O)Nc1cc(F)ccc1C(=O)NCCN1CCC(n2c(=O)[nH]c3cc(Cl)ccc32)CC1` here?
Answer: 196 °C

Question: Which melting point does the source give for `C#CCNc1cc(C(=O)OCC)cc(S(N)(=O)=O)c1Oc1ccccc1` here?
Answer: 189 to 190 °C

Question: With `CCOC(Nc1ccccc1)(OCC)c1ccnc(C(=O)c2ccccc2)c1` as the compound, how does the melting point read?
Answer: 114 to 115 °C

Question: For `C=Cn1cc(C(=O)O)c(=O)c2cc(F)c(N3CCNCC3)nc21`, which melting point is on record?
Answer: 256 to 260 °C

Question: With `CCCC1=NN(c2ccccn2)C(=O)C1=CNc1ccccc1CC` as the compound, how does the melting point read?
Answer: 151 °C

Question: Which melting point does the source give for `COc1nc(C)c(N2CCCn3c2nc2c(OC)ccc(C(OC(F)F)C(F)(F)F)c23)c(C)n1` (centres undefined) here?
Answer: 201 to 203 °C

Question: For `CCOC(=O)c1ccc(/C=C(\C)c2ccc3c(c2)C(C)(C)CCN3C)cc1`, which melting point is on record?
Answer: 100 to 101 °C

Question: For `CC(O)c1ccc(NS(C)(=O)=O)c(Nc2ccc(F)cc2F)c1` (centres undefined), which melting point is on record?
Answer: 192 to 193 °C

Question: For `O=C1c2ccccc2C(=O)N1OCc1cnoc1`, which melting point is on record?
Answer: 133 to 135 °C

Question: With `CC(C)(C)c1cc(C=Cc2ccccc2NC(=O)NC23CC4CC(CC(C4)C2)C3)cc(C(C)(C)C)c1O` as the compound, how does the melting point read?
Answer: 205 to 211 °C

Question: Which melting point does the source give for `CC(C)(C)OC(=O)[C@H]1CC[C@@H](c2ccccc2)N1C(=O)CNC(=O)Nc1ccc(O)c(C(=O)O)c1` (racemic) here?
Answer: 190 °C

Question: For `CCOC(=O)NN(C)C(=S)Nc1ccc(Cl)cc1F`, which melting point is on record?
Answer: 151 °C

Question: With `CCOC(=O)C1=C(C)Nc2ccnc(OC(C)C)c2C1c1ccccn1` (centres undefined) as the compound, how does the melting point read?
Answer: 191 to 193 °C

Question: For `O=C(O)COCC(=O)NC12CC3CC(CC(C3)C1)C2`, which melting point is on record?
Answer: 181 to 183 °C

Question: Which melting point does the source give for `COc1ccccc1N1CCN(CCNC(=O)CCN2CCC(c3c[nH]c4cc(Cl)ccc34)CC2)CC1` here?
Answer: 69 to 71 °C

Question: With `CCCCc1nc2c(n1Cc1ccc(-c3ccccc3S(=O)(=O)NC(=O)NCCC)cc1)C(=CC(=O)OCC)CCS2` as the compound, how does the melting point read?
Answer: 170 °C

Question: With `CN(C)c1ccc(NC(=O)N(C[C@H]2CC[C@H](CN(C(=O)Nc3ccc(N(C)C)cc3)C3CCCCCC3)CC2)C2CCCCCC2)cc1` as the compound, how does the melting point read?
Answer: 159 to 164 °C

Question: With `O=c1c2c(c3ccccc3n1-c1ccccc1)OCC2` as the compound, how does the melting point read?
Answer: 195 to 197 °C

Question: With `CCCn1ncc2c(C3C(=O)Nc4ccc(C#N)cc43)ncnc21` (centres undefined) as the compound, how does the melting point read?
Answer: > 300 °C

Question: Which melting point does the source give for `OCCCON=Cc1cn(Cc2ccccc2)c2ccccc12` here?
Answer: 76.4 to 77.7 °C

Question: For `Cc1cc(-c2cc(C(F)(F)F)nc(-c3cccc(-c4cccc(S(N)(=O)=O)c4)c3)n2)ccc1C(F)(F)F`, which melting point is on record?
Answer: 205 °C

Question: With `O=c1c2cnc(-c3ccccc3)nc2sn1CCc1ccccc1` as the compound, how does the melting point read?
Answer: 144 to 147 °C

Question: With `CCCOc1ccc2nc(NC(=O)OC)sc2c1` as the compound, how does the melting point read?
Answer: 178 to 180 °C

Question: With `CCOC(=O)/C=C/c1cc(OC)cc(OC)c1C#N` as the compound, how does the melting point read?
Answer: 119 to 122 °C

Question: With `COc1ccc(-c2cn([C@H]3CN4CCC3CC4)nn2)cn1` as the compound, how does the melting point read?
Answer: 155 °C

Question: Which melting point does the source give for `CCOC(=O)c1c(O)c2ccccc2n(C)c1=O` here?
Answer: 67 °C

Question: For `CC(=Cc1ccc(C(=O)O)cc1)c1cc2c(cc1C)C(C)(C)CCC2(C)C`, which melting point is on record?
Answer: 91 to 92 °C

Question: For `CCOC(=O)c1cn(C)c2c(=O)c3cc(Cl)ccc3oc2c1=O`, which melting point is on record?
Answer: 295 to 297 °C

Question: With `COc1nc2ccccc2nc1NC(=O)N1CCN(c2cc([N+](=O)[O-])cc([N+](=O)[O-])c2)CC1` as the compound, how does the melting point read?
Answer: 216 to 218 °C

Question: For `O=C(CCn1ccnc1)Cc1c(Cl)cccc1Cl`, which melting point is on record?
Answer: 98.5 to 102 °C

Question: With `CC(=O)Nc1cccc(C=CC(=O)C2C(=O)OC(=O)C(C(C)=O)=C2O)c1` (centres undefined) as the compound, how does the melting point read?
Answer: 222 to 224 °C

Question: For `COC(=O)C1=C(C)NN=C(c2cccs2)C1c1ccccc1` (centres undefined), which melting point is on record?
Answer: 194 °C

Question: With `CCCCc1nn(-c2cccc([N+](=O)[O-])c2)c(=O)n1Cc1ccc(-c2ccccc2S(=O)(=O)NC(C)(C)C)cc1` as the compound, how does the melting point read?
Answer: 164 to 165 °C

Question: Which melting point does the source give for `COc1cc2cc(C(=O)O)oc(=O)c2cc1OC` here?
Answer: 295 to 297 °C

Question: For `O=C1Nc2ccccc2OCC1N1C(=O)c2ccccc2C1=O` (centres undefined), which melting point is on record?
Answer: 188 to 193 °C

Question: Which melting point does the source give for `CC(C)Oc1ccccc1CN1CCC(=O)C(C(c2ccc(F)cc2)c2ccc(F)cc2)C1` (centres undefined) here?
Answer: 155 to 156 °C

Question: With `COC(=O)c1ccc(C=C(Br)Br)c(N)c1` as the compound, how does the melting point read?
Answer: 97 to 99 °C

Question: For `COc1ccc(NC(=O)c2ccc(-c3ccc(-c4noc(C)n4)cc3C)cc2)cc1S(=O)CCN(C)C` (centres undefined), which melting point is on record?
Answer: 204 to 206 °C

Question: For `Oc1ccccc1-n1cccc1`, which melting point is on record?
Answer: 52 to 54 °C

Question: With `COC(=O)C(C)(C)CCCOc1c(C)cc(OC(=O)C(C)(C)C)c(C)c1C` as the compound, how does the melting point read?
Answer: 46 to 47 °C

Question: For `COCCOCc1c(CN(C)CC(O)c2cccnc2)sc2c(=O)c(C(=O)NCc3ccc(Cl)cc3)cn(C)c12` (centres undefined), which melting point is on record?
Answer: 129 to 132 °C

Question: For `CCCN(CCC)C(=O)C(CCC(=O)N(C)C)NC(=O)C=Cc1ccco1` (centres undefined), which melting point is on record?
Answer: 114 to 116 °C

Question: With `CC(=O)Nc1ccccc1CSc1nccn1-c1ccncc1` as the compound, how does the melting point read?
Answer: 153 to 155 °C

Question: Which melting point does the source give for `CCCCCCCCCCOc1cc2oc3ccc(C(=O)O)cc3c(=O)c2cc1CCC(=O)O` here?
Answer: > 210 °C

Question: Which melting point does the source give for `COc1cccc(/C=C/C2=CCN(Cc3c[nH]c4ncccc34)CC2)c1` here?
Answer: 186 to 188 °C

Question: Which melting point does the source give for `CCON=C(C(=O)OCC)c1csc(N)n1` here?
Answer: 129 °C

Question: For `O=S(=O)(c1ccccc1)n1cc(CCOC2OC(CO)C(O)CC2O)c2ccccc21` (centres undefined), which melting point is on record?
Answer: 55 to 57 °C

Question: For `CCOC(=O)c1ccc(C(=O)N(C)C)cc1S(=O)(=O)NC(C)(C)C`, which melting point is on record?
Answer: 101 to 102 °C

Question: Which melting point does the source give for `COc1ccc2[nH]cc(C3=C(c4c[nH]c5ccccc45)C(=O)NC3=O)c2c1` here?
Answer: 280 °C

Question: With `Cc1cc(C2OC(=O)NC2=O)c(C)o1` (centres undefined) as the compound, how does the melting point read?
Answer: 144 to 145 °C

Question: For `C/C(=C\F)CN1C(=O)c2ccccc2C1=O`, which melting point is on record?
Answer: 57 to 58 °C

Question: Which melting point does the source give for `CC1(C)CCC(C)(C)c2cc(C(=O)OCc3ccc(C(=O)OCc4ccccc4)cc3)ccc21` here?
Answer: 78 to 79 °C

Question: For `COc1ccc(C2=C(C(=O)N3CCOCC3)C(=O)c3ccccc32)cc1OC`, which melting point is on record?
Answer: 71.5 °C

Question: For `C=CCn1c(N)c(N=O)c(=O)n(CC=C)c1=O`, which melting point is on record?
Answer: 170 to 180 °C

Question: Which melting point does the source give for `CN(C)C(=O)Cc1nn(-c2ccccc2)c(=O)c2[nH]c3ccc(F)cc3c12` here?
Answer: 289 to 290 °C

Question: For `CCOc1ccc2c(c1)C(C)(c1cc(CN3CCCC3)ccc1Cl)C(=O)N2S(=O)(=O)c1ccc(C(=O)NC(C)(C)C)cc1OC` (centres undefined), which melting point is on record?
Answer: 132 °C

Question: Which melting point does the source give for `Cn1ncc(/C=C/C(=O)Nc2ccc(CS(C)=O)cc2)c1-c1ccc(F)cc1` (centres undefined) here?
Answer: 240 to 241 °C

Question: With `CCCc1nc2c(N)nc3cc(-c4ccccc4)ccc3c2n1NC(C)C` as the compound, how does the melting point read?
Answer: 217 to 220 °C

Question: With `Clc1ccn2cc(Cl)nc2c1` as the compound, how does the melting point read?
Answer: 153 to 154 °C
